molecular target: Hepatocyte growth factor receptor (Homo sapiens, UniProt P08581); test: Inhibition of purified c-Met using poly(glu,tyr) as substrate after 60 mins by ELISA
Sequence (P08581 whole entry): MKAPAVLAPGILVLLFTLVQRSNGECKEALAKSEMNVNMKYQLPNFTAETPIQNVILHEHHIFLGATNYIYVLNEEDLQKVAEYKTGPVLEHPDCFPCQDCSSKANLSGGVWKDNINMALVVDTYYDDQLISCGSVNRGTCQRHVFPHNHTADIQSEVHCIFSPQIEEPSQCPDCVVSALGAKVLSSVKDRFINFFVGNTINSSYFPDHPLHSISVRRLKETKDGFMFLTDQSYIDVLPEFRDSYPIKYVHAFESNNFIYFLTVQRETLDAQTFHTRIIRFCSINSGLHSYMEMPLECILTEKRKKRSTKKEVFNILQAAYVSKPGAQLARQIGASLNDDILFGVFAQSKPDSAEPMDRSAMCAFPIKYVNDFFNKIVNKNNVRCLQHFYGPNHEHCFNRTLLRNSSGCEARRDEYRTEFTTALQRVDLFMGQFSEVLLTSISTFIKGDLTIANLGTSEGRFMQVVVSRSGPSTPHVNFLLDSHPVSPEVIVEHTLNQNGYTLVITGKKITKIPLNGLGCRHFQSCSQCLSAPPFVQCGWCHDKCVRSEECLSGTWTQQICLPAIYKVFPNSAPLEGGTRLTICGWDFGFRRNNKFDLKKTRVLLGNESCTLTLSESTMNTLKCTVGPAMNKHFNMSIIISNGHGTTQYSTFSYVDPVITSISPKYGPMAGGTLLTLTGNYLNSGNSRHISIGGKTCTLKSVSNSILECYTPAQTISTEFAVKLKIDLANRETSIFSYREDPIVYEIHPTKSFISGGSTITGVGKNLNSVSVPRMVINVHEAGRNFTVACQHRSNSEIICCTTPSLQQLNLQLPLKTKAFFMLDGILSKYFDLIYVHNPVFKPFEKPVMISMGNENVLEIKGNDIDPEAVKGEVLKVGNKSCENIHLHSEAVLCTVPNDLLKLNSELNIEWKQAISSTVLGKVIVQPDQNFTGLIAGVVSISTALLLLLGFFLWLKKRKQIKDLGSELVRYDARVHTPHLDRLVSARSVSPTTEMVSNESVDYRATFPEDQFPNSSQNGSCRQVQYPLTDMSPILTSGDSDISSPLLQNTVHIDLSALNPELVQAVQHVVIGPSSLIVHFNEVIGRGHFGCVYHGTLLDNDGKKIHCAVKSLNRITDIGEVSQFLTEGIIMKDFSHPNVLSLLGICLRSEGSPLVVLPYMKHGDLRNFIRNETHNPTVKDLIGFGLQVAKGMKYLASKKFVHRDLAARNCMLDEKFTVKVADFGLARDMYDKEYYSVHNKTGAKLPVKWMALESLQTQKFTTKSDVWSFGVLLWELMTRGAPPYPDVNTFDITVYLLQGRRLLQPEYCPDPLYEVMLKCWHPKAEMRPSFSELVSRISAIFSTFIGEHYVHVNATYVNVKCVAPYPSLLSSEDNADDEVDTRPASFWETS

Row | SMILES | IC50
1 | CN1C(=O)/C(=N\NC(=O)c2cccc(C(=O)N/N=C3/C(=O)N(C)c4ccccc43)c2)c2ccccc21 | 10.3 µM
2 | Cc1cccc(C(=O)Nc2ccc(C(=O)N/N=C3\C(=O)Nc4ccccc43)cc2)c1 | 1.3 µM
3 | COc1ccc(C(=O)COC(=O)c2ccc3c(c2)C(=O)N(c2ccc(C(C)=O)cc2)C3=O)cc1 | 3.7 µM
4 | O=[N+]([O-])c1cc(-c2ccc(/C=N\n3cnnc3N/N=C/c3ccc(-c4ccc(Cl)c([N+](=O)[O-])c4)o3)o2)ccc1Cl | 3.3 µM
5 | O=C(CCCCCC(=O)N/N=C/c1cc2c(cc1[N+](=O)[O-])OCO2)N/N=C/c1cc2c(cc1[N+](=O)[O-])OCO2 | 0.78 µM
6 | O=C1Nc2ccccc2C1=NNC(=O)c1ccc([N+](=O)[O-])cc1 | 28.3 µM
7 | O=C1Nc2ccccc2/C1=N/NC(=O)c1cc2ccccc2cc1O | 4.3 µM
8 | CN1C(=O)/C(=N\NC(=O)c2ccc([N+](=O)[O-])cc2)c2ccccc21 | 12.3 µM
9 | Cc1ccc(NC(=O)CN2C(=O)/C(=N\NC(=O)c3ccc(N)cc3)c3ccccc32)cc1 | 15.8 µM
10 | O=C(N/N=C1\C(=O)N(CN2CCOCC2)c2ccc(Br)cc21)c1ccccc1 | 3.5 µM
11 | COc1ccc(C(=O)N/N=C2\C(=O)N(CN3CCOCC3)c3ccc(Br)cc32)cc1 | 2.2 µM

Source: ChEMBL document CHEMBL1777704, “Identification and synthesis of N'-(2-oxoindolin-3-ylidene)hydrazide derivatives against c-Met kinase” (Bioorg Med Chem Lett, 2011)
